Experimental findings from PubChem BioAssay (NCI) are described below.

Among the test systems are HL-60(TB) leukemia; ACHN renal; HT29 colon; SNB-19 CNS; SK-MEL-2 melanoma; CAKI-1 renal; HS 578T breast; OVCAR-3 ovarian; UO-31 renal; U251 CNS; SK-MEL-5 melanoma; LOX IMVI melanoma; SF-295 CNS; MDA-MB-435; NCI-H23 lung; HCC-2998 colon; SNB-75 CNS.
Assay in all cases: DTP human tumour cell line panel, 48 h

Where “and” joins values, the source holds several entries; their conditions need not be identical. Equal entries are not always repeated.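 Cells were grown in 96-well plates and exposed to each compound for 48 hours at five concentrations; endpoints were interpolated linearly between bracketing concentrations, or set to the highest concentration if not reached. The concentration for 50% growth inhibition is given as GI50. TGI: total growth inhibition.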

As to `Cc1ccc(-n2cc(-c3ccc(Cl)cc3)c3c(N/N=C4\SCC(=O)N4C)ncnc32)cc1`, the TGI was > 100 µM with HL-60(TB) leukemia; > 100 µM in the assay with ACHN renal; > 100 µM in the assay with HT29 colon; 63.1 µM in the assay on SNB-19 CNS; 6.18 µM in the assay with SK-MEL-2 melanoma; 32.3 µM in the assay on CAKI-1 renal. For the same compound, the total growth inhibition concentration (TGI) with HS 578T breast was 21.3 µM; with OVCAR-3 ovarian, > 100 µM; with UO-31 renal, > 100 µM; in the assay on U251 CNS, 36.5 µM; in the assay on SK-MEL-5 melanoma, 15.5 µM; in the assay with LOX IMVI melanoma, > 100 µM. Moreover, the total growth inhibition concentration (TGI) in the assay on SF-295 CNS is 9.37 µM; in the assay with MDA-MB-435, 40 µM; in the assay on NCI-H23 lung it was 45.7 µM.
For the compound `CCCCCc1nnc(NS(=O)(=O)c2ccc(NC(=O)OCC(C)C)cc2)s1`, the TGI in the assay with HL-60(TB) leukemia is > 100 µM; in the assay on ACHN renal it was > 100 µM; with HT29 colon, 46.1 µM; in the assay with SNB-19 CNS, > 100 µM; with SK-MEL-2 melanoma, 53.5 µM; in the assay on CAKI-1 renal, > 100 µM. The total growth inhibition concentration (TGI) was > 100 µM with HS 578T breast; 86.9 µM with OVCAR-3 ovarian; > 100 µM with UO-31 renal; > 100 µM in the assay on U251 CNS; 63.7 µM in the assay on SK-MEL-5 melanoma; > 100 µM in the assay on LOX IMVI melanoma. The TGI with SF-295 CNS, in the assay on MDA-MB-435 and in the assay with NCI-H23 lung was > 100 µM throughout.
Consider `Cc1cn(CCCCCCC2=NCCCN2)c(=O)[nH]c1=O`, for which the TGI with ACHN renal, with HT29 colon, in the assay with SNB-19 CNS, in the assay on SK-MEL-2 melanoma, in the assay with CAKI-1 renal and in the assay with HS 578T breast was > 100 µM in each case. In addition, the concentration for total growth inhibition (TGI) in the assay on OVCAR-3 ovarian, in the assay with HCC-2998 colon, in the assay with UO-31 renal, with U251 CNS, in the assay on SK-MEL-5 melanoma and in the assay with LOX IMVI melanoma was > 100 µM throughout. The TGI in the assay with SF-295 CNS, with MDA-MB-435, with NCI-H23 lung and with SNB-75 CNS was > 100 µM each time.
With `Cc1c(-c2ccccc2)nn2cc(-c3ccccc3)nnc12`, the total growth inhibition concentration (TGI) with ACHN renal was > 100 µM; in the assay with HT29 colon, > 100 µM; in the assay with SNB-19 CNS, > 100 µM; in the assay on SK-MEL-2 melanoma, 47 µM; with CAKI-1 renal, > 100 µM; in the assay with HS 578T breast, 75.6 µM. Moreover, the TGI in the assay on OVCAR-3 ovarian was > 100 µM; in the assay on HCC-2998 colon it was 34 µM; in the assay on UO-31 renal, > 100 µM; in the assay on U251 CNS, 85.7 µM; with SK-MEL-5 melanoma, 41.4 µM; in the assay with LOX IMVI melanoma it was 41.1 µM. In addition, the total growth inhibition concentration (TGI) in the assay with SF-295 CNS, in the assay with MDA-MB-435, in the assay with NCI-H23 lung and in the assay on SNB-75 CNS was > 100 µM in each case.
Consider `Cc1ccc2c(=O)c(C(=O)Nn3c(C)csc3=S)c[nH]c2n1`, for which the TGI in the assay with HL-60(TB) leukemia, with ACHN renal, in the assay on HT29 colon, with SNB-19 CNS, with SK-MEL-2 melanoma and with CAKI-1 renal was > 100 µM in each case. In addition, the TGI in the assay on HS 578T breast, in the assay with OVCAR-3 ovarian, with UO-31 renal, in the assay with U251 CNS, in the assay on SK-MEL-5 melanoma and in the assay with LOX IMVI melanoma was > 100 µM throughout. Besides, the TGI in the assay with SF-295 CNS, in the assay on MDA-MB-435 and with NCI-H23 lung was > 100 µM throughout.
On to `O=C(CCCCCCCCC(=O)N1C(=O)CC(=O)N(c2ccccc2)C1=S)N1C(=O)CC(=O)N(c2ccccc2)C1=S`, for which the total growth inhibition concentration (TGI) in the assay on ACHN renal, with HT29 colon, in the assay with SNB-19 CNS, in the assay with SK-MEL-2 melanoma, in the assay with CAKI-1 renal and in the assay on HS 578T breast was > 100 µM throughout. The TGI in the assay on OVCAR-3 ovarian, with HCC-2998 colon, with UO-31 renal, in the assay with U251 CNS, in the assay with SK-MEL-5 melanoma and with LOX IMVI melanoma was > 100 µM in each case. In addition, the TGI in the assay with SF-295 CNS, in the assay on MDA-MB-435, with NCI-H23 lung and with SNB-75 CNS was > 100 µM each time.
Turning to `Brc1ccc2c3c1[C@H]1O[C@H]1c1cccc(c1-3)[C@@H]1O[C@H]21`, the concentration for total growth inhibition (TGI) in the assay with ACHN renal was 31.9 µM; in the assay on HT29 colon, 34.7 µM; in the assay with SNB-19 CNS it was 34.3 µM; in the assay with SK-MEL-2 melanoma, 41.6 µM; in the assay on CAKI-1 renal, 31.6 µM; in the assay on HS 578T breast it was 59.5 µM. For the same compound, the TGI stood at 32.1 µM in the assay with UO-31 renal; 37.1 µM with U251 CNS; 30.2 µM with SK-MEL-5 melanoma; 9.39 µM in the assay on LOX IMVI melanoma; 29.3 µM with SF-295 CNS; 29.4 µM in the assay with MDA-MB-435. In addition, the TGI with NCI-H23 lung is 38.7 µM; with SNB-75 CNS it was 26.3 µM.
Consider `C[n+]1c(-c2ccc(/C=N/Nc3ccnc(N/N=C/c4ccc(-c5cn6ccsc6[n+]5C)cc4)n3)cc2)cn2ccsc21`, for which the concentration for total growth inhibition (TGI) was 78.6 µM with ACHN renal; > 100 µM in the assay with HT29 colon; > 100 µM in the assay on SNB-19 CNS; 85.9 µM in the assay on SK-MEL-2 melanoma; 66.6 µM in the assay on CAKI-1 renal; > 100 µM in the assay on HS 578T breast. For the same compound, the concentration for total growth inhibition (TGI) is > 100 µM in the assay with OVCAR-3 ovarian; > 100 µM in the assay with HCC-2998 colon; > 100 µM with UO-31 renal; > 100 µM in the assay with U251 CNS; 54.5 µM in the assay on SK-MEL-5 melanoma; 40.1 µM in the assay with MDA-MB-435. In addition, the TGI was > 100 µM in the assay on NCI-H23 lung and 68.3 µM in the assay on SNB-75 CNS.
For `COC(=O)[C@H]1NC(=O)CCSSC1(C)C`, the TGI in the assay on HL-60(TB) leukemia, in the assay on ACHN renal, in the assay with HT29 colon, in the assay on SNB-19 CNS, with SK-MEL-2 melanoma and in the assay with CAKI-1 renal was > 100 µM in each case. The TGI in the assay on HS 578T breast, in the assay on OVCAR-3 ovarian, in the assay on UO-31 renal, with U251 CNS, in the assay with SK-MEL-5 melanoma and with LOX IMVI melanoma was > 100 µM each time. Also, the concentration for total growth inhibition (TGI) in the assay with SF-295 CNS, in the assay on MDA-MB-435 and with NCI-H23 lung was > 100 µM throughout.
Take `COC(OC)C1OCC(n2cc(F)c(=O)[nH]c2=O)C1O` (stereo not drawn): the total growth inhibition concentration (TGI) in the assay on ACHN renal, in the assay on HT29 colon, with SNB-19 CNS, in the assay with SK-MEL-2 melanoma, with CAKI-1 renal and in the assay with HS 578T breast was > 100 µM in each case. Besides, the concentration for total growth inhibition (TGI) in the assay with OVCAR-3 ovarian, with HCC-2998 colon, with UO-31 renal, in the assay on U251 CNS, with SK-MEL-5 melanoma and in the assay with LOX IMVI melanoma was > 100 µM each time. Further, the total growth inhibition concentration (TGI) with SF-295 CNS, in the assay with MDA-MB-435, in the assay on NCI-H23 lung and in the assay on SNB-75 CNS was > 100 µM throughout.
On to `COc1cc(O)c2c(=O)c3c(C)cccc3n(C)c2c1`, for which the TGI with ACHN renal, in the assay with HT29 colon, with SNB-19 CNS, with SK-MEL-2 melanoma, in the assay on CAKI-1 renal and in the assay with HS 578T breast was > 10 µM each time. Further, the total growth inhibition concentration (TGI) with OVCAR-3 ovarian, in the assay with HCC-2998 colon, in the assay on UO-31 renal, in the assay on U251 CNS, in the assay with SK-MEL-5 melanoma and in the assay with LOX IMVI melanoma was > 10 µM throughout. Besides, the TGI in the assay on SF-295 CNS, in the assay with MDA-MB-435, in the assay on NCI-H23 lung and with SNB-75 CNS was > 10 µM each time.
Turning to `CCOC(=O)c1c(Br)c(-c2ccc(OC)cc2)c(Br)n1C`, the TGI in the assay with HL-60(TB) leukemia is 14.1 µM; in the assay on ACHN renal it was > 100 µM; in the assay with HT29 colon it was 56.3 µM; in the assay with SNB-19 CNS, 97.7 µM; in the assay on SK-MEL-2 melanoma, 39.1 µM; in the assay on HS 578T breast, 47.6 µM. The TGI with OVCAR-3 ovarian was 67.7 µM; in the assay with UO-31 renal, 89.2 µM; with U251 CNS, > 100 µM; with SK-MEL-5 melanoma it was 22.4 µM; with LOX IMVI melanoma it was 41.6 µM; in the assay on SF-295 CNS, 56.1 µM. Besides, the total growth inhibition concentration (TGI) in the assay with MDA-MB-435 is 7.71 µM and 29.3 µM; with NCI-H23 lung it was > 100 µM; with SNB-75 CNS it was > 100 µM. The GI50 with LOX IMVI melanoma was 17.5 µM; in the assay with MDA-MB-435, 4.47 µM; in the assay with SNB-75 CNS, 63.4 µM.
On to `O=C(c1ccccc1)n1cc(-c2ccccc2)c2c(=O)[nH]cnc21`, for which the concentration for total growth inhibition (TGI) with ACHN renal, in the assay with HT29 colon, in the assay with SNB-19 CNS, with SK-MEL-2 melanoma, in the assay with CAKI-1 renal and with HS 578T breast was > 100 µM throughout. Besides, the TGI in the assay on OVCAR-3 ovarian, with HCC-2998 colon, with UO-31 renal, in the assay on U251 CNS, with SK-MEL-5 melanoma and in the assay on LOX IMVI melanoma was > 100 µM in each case. For the same compound, the total growth inhibition concentration (TGI) with SF-295 CNS, in the assay on MDA-MB-435, with NCI-H23 lung and in the assay with SNB-75 CNS was > 100 µM throughout.
Take `C/C(=C\c1ccccc1)C(=O)NCc1ccc(C(=O)NCCc2ccccc2)cc1`: the TGI in the assay with ACHN renal is > 100 µM; in the assay on HT29 colon, 6.81 µM; in the assay with SNB-19 CNS it was > 100 µM; in the assay on SK-MEL-2 melanoma it was > 100 µM; with CAKI-1 renal, > 100 µM; in the assay with HS 578T breast, > 100 µM. Also, the concentration for total growth inhibition (TGI) in the assay with OVCAR-3 ovarian, in the assay with HCC-2998 colon, with UO-31 renal, with U251 CNS, with SK-MEL-5 melanoma and with LOX IMVI melanoma was > 100 µM each time. Moreover, the concentration for total growth inhibition (TGI) was 98.8 µM with SF-295 CNS, > 100 µM in the assay on MDA-MB-435, > 100 µM in the assay on NCI-H23 lung and 19.5 µM in the assay on SNB-75 CNS.

One may read the TGI as the concentration giving total growth inhibition. The low end stands for more potent growth arrest, the high end for less potent growth arrest. In general, GI50 refers to the concentration giving 50% growth inhibition.
